Measured values: ChEMBL document CHEMBL1127541, “3,4-Dihydro-3-amino-2H-1-benzopyran derivatives as 5-HT1A receptor ligands and potential anxiolytic agents. 1. Synthesis and structure--activity relationship studies” (J Med Chem, 1994)

Experiments:
Mus musculus [1] = test: (§1) The in vivo compartmental activity was evaluated as minimum significant active dose measured by punishment test; assay type: functional
[2] = biological target: T1, 5-hydroxytryptamine receptor 1A (Rattus norvegicus, UniProt P19327); test: Binding affinity against 5-hydroxytryptamine 1A (5-HT1A) receptor in rat hippocampus membranes; assay type: cell membranes, Membrane
T1 sequence (P19327 whole entry): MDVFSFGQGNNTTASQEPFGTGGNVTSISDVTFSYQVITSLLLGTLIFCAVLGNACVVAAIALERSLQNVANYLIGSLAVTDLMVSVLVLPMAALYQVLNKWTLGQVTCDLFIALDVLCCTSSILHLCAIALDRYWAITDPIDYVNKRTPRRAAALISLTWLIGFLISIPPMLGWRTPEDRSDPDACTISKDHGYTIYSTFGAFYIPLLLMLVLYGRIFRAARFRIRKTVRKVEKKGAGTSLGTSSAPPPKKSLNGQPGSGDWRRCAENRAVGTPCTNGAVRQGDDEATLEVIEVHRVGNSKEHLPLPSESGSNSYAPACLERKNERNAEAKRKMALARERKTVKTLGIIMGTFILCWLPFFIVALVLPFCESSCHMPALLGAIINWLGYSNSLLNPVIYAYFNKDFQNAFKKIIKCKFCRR

Mus musculus [3] = test: The in vivo compartmental activity was evaluated as minimum significant active dose measured by lower lip retraction test; assay type: functional
D(2) dopamine receptor = D(2) dopamine receptor (Bos taurus, UniProt P20288); test: Binding affinity against D2 receptor in calf caudate nucleus
Mus musculus [4] = test: The in vivo compartmental activity was evaluated as minimum significant active dose measured by Forepaw treading test; assay type: functional
D(1A) dopamine receptor = D(1A) dopamine receptor (Bos taurus, UniProt Q95136); test: Binding affinity towards dopamine receptor D1 in calf striatum; assay type: tissue-based
[5] = biological target: 5-hydroxytryptamine receptor 1B (Rattus norvegicus, UniProt P28564); test: Binding affinity for 5-hydroxytryptamine 1B receptor in rat cortex, striatum and globus pallidus; assay type: tissue-based
[6] = biological target: 5-hydroxytryptamine receptor 2A (Bos taurus, UniProt Q75Z89); test: Binding affinity towards 5-hydroxytryptamine 2 receptor in calf frontal cortex; assay type: tissue-based
Mus musculus [7] = species: Mus musculus; test: Inhibitory concentration of compound was tested as agonist activity against DRN firing in the dorsal raphe nucleus; assay type: functional, organism-based
[8] = biological target: T2, Alpha-1A adrenergic receptor (Bos taurus, UniProt P18130); test: Binding affinity against alpha-1 adrenergic receptor in calf frontal cortex; assay type: tissue-based
T2 sequence (P18130 whole entry): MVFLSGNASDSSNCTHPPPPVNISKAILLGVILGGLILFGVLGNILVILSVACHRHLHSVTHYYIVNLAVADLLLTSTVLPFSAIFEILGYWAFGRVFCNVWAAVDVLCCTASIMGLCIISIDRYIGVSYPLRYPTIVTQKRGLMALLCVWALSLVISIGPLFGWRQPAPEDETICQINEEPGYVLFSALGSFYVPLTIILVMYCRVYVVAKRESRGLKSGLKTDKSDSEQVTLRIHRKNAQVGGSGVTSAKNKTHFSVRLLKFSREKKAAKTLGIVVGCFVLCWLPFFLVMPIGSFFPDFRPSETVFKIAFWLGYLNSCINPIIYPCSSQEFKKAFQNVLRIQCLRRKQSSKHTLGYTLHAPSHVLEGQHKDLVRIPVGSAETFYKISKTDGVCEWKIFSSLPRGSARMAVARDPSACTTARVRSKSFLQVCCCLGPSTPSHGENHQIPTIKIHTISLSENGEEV

Mus musculus [9] = test: The in vivo compartmental activity was evaluated as minimum significant active dose measured by Dark/light box test; assay type: functional
[10] = biological target: T3, Alpha-2A adrenergic receptor (Bos taurus, UniProt Q28838); test: Binding affinity against alpha-2 adrenergic receptor in calf frontal cortex; assay type: tissue-based
T3 sequence (Q28838 whole entry): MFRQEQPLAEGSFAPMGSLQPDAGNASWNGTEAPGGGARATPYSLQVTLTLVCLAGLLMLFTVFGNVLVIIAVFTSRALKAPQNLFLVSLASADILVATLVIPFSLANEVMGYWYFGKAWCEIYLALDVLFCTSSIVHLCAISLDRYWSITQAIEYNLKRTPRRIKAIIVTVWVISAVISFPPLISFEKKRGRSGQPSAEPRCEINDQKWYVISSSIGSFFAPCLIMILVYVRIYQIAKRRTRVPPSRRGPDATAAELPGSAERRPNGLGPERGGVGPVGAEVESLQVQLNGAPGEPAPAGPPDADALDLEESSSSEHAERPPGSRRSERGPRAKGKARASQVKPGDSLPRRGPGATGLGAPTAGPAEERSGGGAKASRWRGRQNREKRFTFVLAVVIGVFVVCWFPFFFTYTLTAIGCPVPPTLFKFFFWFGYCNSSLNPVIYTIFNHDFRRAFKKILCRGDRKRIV

Mus musculus [11] = test: The in vivo compartmental activity was evaluated as minimum significant active dose measured by Drug discrimination test; assay type: functional
[12] = Inhibitory concentration of compound was tested as agonist activity against forskolin activated adenylate cyclase; assay type: functional
[13] = Inhibitory concentration of compound was tested as agonist activity against DRN serotonergic neurons firing in the dorsal raphe nucleus; assay type: functional, tissue-based, Rattus norvegicus
Mus musculus [14] = test: as §1; assay type: ADME, organism-based

D(1A) dopamine receptor, sequence (Q95136 whole entry): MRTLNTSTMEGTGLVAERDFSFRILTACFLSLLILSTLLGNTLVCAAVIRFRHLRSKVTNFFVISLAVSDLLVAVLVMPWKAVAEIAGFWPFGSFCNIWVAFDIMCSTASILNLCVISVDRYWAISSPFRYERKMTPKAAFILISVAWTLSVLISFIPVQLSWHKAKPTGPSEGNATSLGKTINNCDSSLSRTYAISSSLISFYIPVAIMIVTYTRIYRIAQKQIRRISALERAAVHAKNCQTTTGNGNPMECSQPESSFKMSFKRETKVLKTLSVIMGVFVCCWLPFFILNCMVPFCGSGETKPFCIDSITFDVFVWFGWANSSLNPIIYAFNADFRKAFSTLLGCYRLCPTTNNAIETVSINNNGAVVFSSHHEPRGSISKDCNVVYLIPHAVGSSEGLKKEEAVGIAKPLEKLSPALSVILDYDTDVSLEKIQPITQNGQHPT
D(2) dopamine receptor, sequence (P20288 whole entry): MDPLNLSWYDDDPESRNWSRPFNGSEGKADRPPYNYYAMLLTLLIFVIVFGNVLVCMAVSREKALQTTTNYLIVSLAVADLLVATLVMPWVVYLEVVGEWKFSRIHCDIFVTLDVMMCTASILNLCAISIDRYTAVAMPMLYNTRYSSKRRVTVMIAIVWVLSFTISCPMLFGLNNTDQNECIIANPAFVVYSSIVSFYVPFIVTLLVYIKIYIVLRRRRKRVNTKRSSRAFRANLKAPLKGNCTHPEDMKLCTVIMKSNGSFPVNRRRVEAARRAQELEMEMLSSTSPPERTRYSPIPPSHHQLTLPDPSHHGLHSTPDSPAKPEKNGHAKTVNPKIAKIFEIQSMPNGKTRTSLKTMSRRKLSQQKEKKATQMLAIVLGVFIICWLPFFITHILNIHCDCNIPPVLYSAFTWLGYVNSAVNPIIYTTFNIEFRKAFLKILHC
5-hydroxytryptamine receptor 2A, sequence (Q75Z89 whole entry): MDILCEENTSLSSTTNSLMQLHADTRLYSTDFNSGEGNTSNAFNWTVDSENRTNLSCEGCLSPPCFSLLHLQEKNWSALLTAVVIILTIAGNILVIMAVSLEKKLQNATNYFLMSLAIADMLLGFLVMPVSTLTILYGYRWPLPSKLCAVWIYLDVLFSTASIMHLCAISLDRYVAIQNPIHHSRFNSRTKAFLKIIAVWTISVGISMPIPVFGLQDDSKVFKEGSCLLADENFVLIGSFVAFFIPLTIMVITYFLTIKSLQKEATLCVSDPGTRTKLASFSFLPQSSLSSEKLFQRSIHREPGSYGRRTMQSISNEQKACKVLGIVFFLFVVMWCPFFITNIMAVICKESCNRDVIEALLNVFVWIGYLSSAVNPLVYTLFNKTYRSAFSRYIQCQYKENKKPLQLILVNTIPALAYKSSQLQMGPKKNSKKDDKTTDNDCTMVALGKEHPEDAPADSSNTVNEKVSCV
5-hydroxytryptamine receptor 1B, sequence (P28564 whole entry): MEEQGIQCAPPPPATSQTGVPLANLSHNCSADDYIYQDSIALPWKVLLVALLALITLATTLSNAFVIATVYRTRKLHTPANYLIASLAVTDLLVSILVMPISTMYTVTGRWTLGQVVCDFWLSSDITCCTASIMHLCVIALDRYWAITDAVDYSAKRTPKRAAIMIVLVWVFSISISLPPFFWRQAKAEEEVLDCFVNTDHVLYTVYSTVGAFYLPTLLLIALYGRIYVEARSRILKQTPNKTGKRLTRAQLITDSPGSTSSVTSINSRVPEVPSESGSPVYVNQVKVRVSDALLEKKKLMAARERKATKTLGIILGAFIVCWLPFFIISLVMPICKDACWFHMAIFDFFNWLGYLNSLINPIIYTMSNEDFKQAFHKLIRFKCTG

SMILES | Punishment test msad (Mus musculus [1]) | IC50 [2] | LLR msad (Mus musculus [3]) | IC50 (D(2) dopamine receptor) | FPT msad (Mus musculus [4]) | IC50 (D(1A) dopamine receptor) | IC50 [5] | IC50 [6] | IC50 (Mus musculus [7]) | IC50 [8] | DLBT (Mus musculus [9]) | IC50 [10] | DDT msad (Mus musculus [11]) | IC50 [12] | IC50 [13] | Punishment test msad (Mus musculus [14])
CCCN(CCCCN1C(=O)CC2(CCCC2)CC1=O)C1COc2cccc(OC)c2C1.O=C(O)C(=O)O (single isomer, unassigned; (-)) | 1 mg/kg | 0.002 µM | 8 mg/kg | 0.01 µM | 32 mg/kg | 20 µM | 6 µM | 5 µM | ~0.13 µM | 20 µM | >2 mg/kg | 0.02 µM | 3 mg/kg | 0.248 µM |  | 
CCCN(CCC)C1CCc2cccc(O)c2C1 (configuration not stated) [8-OH-DPAT] |  |  |  | 0.8 µM |  | > 1000 µM |  | 49 µM |  | 30 µM |  | 1 µM |  | ~0.008 µM | ~0.005 µM | 0.1 mg/kg
